Results published in patent US8853227B2, “Methotrexate adjuvants to reduce toxicity and methods for using the same” (Tosk, Incorporated, priority 2008, dated 2014).

Target: human small intestinal UPase enzyme (Homo sapiens (Human), UniProt Q16831)
Test: UPase inhibition in human small intestinal tissue homogenate (HPLC of uracil)
Format: biochemical
Conditions: 5 mM uridine, 37° C., pH 7.3
Method: A range of TK-112690 doses were studied for the their ability to prevent metabolic breakdown of uridine through the in vitro inhibition of mouse and human small intestinal UPase enzyme. UPase activity was determined by HPLC analysis using UV detection of uracil concentration (UPase catabolizes uridine into uracil and ribose-1-phosphate). The UPase enzyme material was prepared from homogenized mouse and human being small intestinal tissue. TK-112690 was dissolved in water (50 mg/ml) and analyzed for UPase inhibition in aqueous solution containing 5 mM uridine, 0.01 M Tris, 0.01 M phosphate, 1 mM EDTA, and 1 mM DTT. Reactions were performed at 37° C. at pH of 7.3.
[…] inhibition of mouse and human UPase was determined from measurements of uracil determined in homogenates by reverse phase HPLC using UV detection. […]
The aim of this study was to evaluate TK-112690 in vivo as an inhibitor of uridine phosphorylase (UPase) enzyme activity. […] Detection of UPase activity was determined by HPLC analysis using UV detection of uracil concentration (UPase catabolizes uridine into uracil and ribose-1-phosphate).
The UPase enzyme material was prepared from homogenized mouse and human being small intestinal tissue. TK-112690 was dissolved in water (50 mg/ml) and analyzed for UPase inhibition in aqueous solution containing 5 mM uridine, 0.01 M Tris, 0.01 M phosphate, 1 mM EDTA, and 1 mM DTT. […]

Chain of human small intestinal UPase enzyme (Q16831 whole entry): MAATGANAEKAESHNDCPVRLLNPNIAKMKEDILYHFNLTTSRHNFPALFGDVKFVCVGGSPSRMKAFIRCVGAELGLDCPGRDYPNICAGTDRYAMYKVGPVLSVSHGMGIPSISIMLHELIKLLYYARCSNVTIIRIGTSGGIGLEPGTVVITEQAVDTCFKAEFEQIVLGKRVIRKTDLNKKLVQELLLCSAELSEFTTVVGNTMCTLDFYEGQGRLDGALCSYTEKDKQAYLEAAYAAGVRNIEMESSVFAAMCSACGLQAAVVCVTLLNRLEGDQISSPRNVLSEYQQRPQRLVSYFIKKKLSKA

Cc1cn2c(nc1=O)O[C@H]1[C@H](O)[C@@H](CO)O[C@H]12 [TK-112690, 2,2′-anhydro-5-methyluridine]
IC50: 20 µM
